Test results from US8809314B1, “Cephalosporin compound” (Cubist Pharmaceuticals, Inc., priority 2012, dated 2014).
Converted amounts (≈) assume the structure as drawn.

Tests used:
Sa399 (MRSA) = assay: MIC, broth microdilution (Example 3), Table 1; assay type: cell-based; conditions: Staphylococcus aureus, CAMHB, final 2% NaCl
Description: (§1) To prepare for MIC testing, individual colonies were isolated by streaking frozen glycerol material containing Staphylococcus or Pseudomonas spp. onto rich, non-selective, tryptic soy agar containing 5% sheep's blood (TSAB), and incubated at 37° C. for 18-24 hrs.
(§2) On the day of testing, primary cultures were started by scraping off 5-10 colonies from the TSAB plates. The material was suspended in ˜5 mL of cation adjusted Mueller Hinton Broth (CAMHB) in 14 mL culture tubes and incubated at 37° C. with aeration (200 rpm) for ˜2 hrs until the OD600 was ≧0.1.
(§3) Inoculum cultures were prepared by standardizing the primary cultures to OD600=0.1 and then adding 20 μL of the adjusted primary culture per 1 mL CAMHB for Pseudomonas and CAMHB plus 4% NaCl for MRSA so that the final inoculum density was ˜10^5 colony forming units per milliliter. Diluted inoculum cultures were used to inoculate 50 μL per well in 96 well broth microdilution assay plates. 50 μL of CAMHB that contained compound concentrations ranging from 64-0.06 μg/mL in two-fold dilutions was also added to the broth microdilution assay plates for a final volume 100 μL per well, therefore final culture OD600 was approximately 0.001 and the final NaCl concentration for the MRSA strain was 2%.
(§4) Plates were incubated for 18-20 hours at 37° C. with aeration (200 rpm). Following incubation, growth was confirmed visually placing plates over a viewing apparatus (stand with a mirror underneath) and then OD600 was measured using a SpectraMax 340PC384 plate reader (Molecular Devices, Sunnyvale, Calif.). Growth was defined as turbidity that could be detected with the naked eye or achieving minimum OD600 of 0.1. MIC values were defined as the lowest concentration producing no visible turbidity.

Pa44 (WT Pa) = assay: MIC, broth microdilution (Example 3), Table 1; assay type: cell-based; conditions: Pseudomonas aeruginosa, CAMHB
Description: as §1, §2, §3, §4

MRSA #712 = assay: MIC in MHB by standard CLSI microdilution (Example 4); assay type: cell-based; conditions: Staphylococcus aureus; MRSA #712; read-out: MIC
From the text: (§5) II. Methods • A. Animals: Six week-old, specific pathogen free, female CD-1 mice purchased from Charles River Laboratories (Wilmington, Mass.) were used for all studies after acclimation in Cubist animal facility. All animal procedures were approved by the Cubist Institutional Animal Care and Use Committee. • B. Bacteria and In Vitro Susceptibility Testing: MRSA #712, Pseudomonas aeruginosa #2245 and #2545, and Klebsiella pneumoniae #573 are clinical isolates; Pseudomonas aeruginosa #44 is an ATCC strain (ATCC#27853). MIC was determined in MHB by standard CLSI microdilution. Comparator Antibiotics Used in Animal Studies: Vancomycin hydrochloride USP was purchased from Hospira (Lake Forest, Ill.); ceftazidime hydrate from Sigma; Primaxin (imipenem and cilastatin) from Merck; ceftaroline was synthesized at a CRO. • D. Mouse Septicemia: Mice received lethal inocula of bacteria in 6% hog gastric mucin intraperitoneally (IP), followed by two treatment doses of antibiotics via subcutaneous (SC) administration at 1 and 6 hrs post-inoculation. The survival of animals was recorded daily for 7 days. The antibiotic dose calculated to protect 50% of the mice (PD50) was derived based on probit analysis of percentage survival. • E. Mouse Thigh and Lung Infections: Mice were rendered neutropenic by two IP injections of cyclophosphamide 4 days (150 mg/kg) and 1 day (100 mg/kg) before bacterial inoculation. Thigh or lung infection was induced by an intramuscular injection of 0.2 mL or intranasal inoculation of 0.1 mL inoculum preparation from an overnight bacterial culture into left thigh or nares. Tissues from one group of mice receiving no treatment (No Rx) were harvested at 1 hr for determination of baseline of bacterial burden. The remaining mice received two treatment doses of vehicles or antibiotics given SC at 1 and 6 hrs post-inoculation. Tissues from the treated mice were harvested at ˜24 hrs post-inoculation. Tissue bacterial burdens were quantified by serial dilution and spiral plating of homogenates.

Pa44 (ATCC27853) = assay: MIC, broth microdilution (Example 5), Table 3; assay type: cell-based; conditions: Pseudomonas aeruginosa
Description: (§6) II. […] MIC90 values were defined as the concentration required to inhibit growth of 90% of the strains tested. • C. SAR was performed using the following isolates: Sa399 (ATCC43300, MRSA), Sa1721 (NARSA NRS384, MRSA USA 300), Pa44 (ATCC27853), and 4 clinical isolates (Pa2241, Pa2086 (mucoid strain), Pa2694 and Pa2698). • D. The in vitro antibacterial activity of the compound of formula (I) was further evaluated in an expanded MRSA and Pa MIC panel (see Table 4 and FIG. 6).

Pa2241 = assay: MIC, broth microdilution (Example 5), Table 3; assay type: cell-based; conditions: Pseudomonas aeruginosa
Description: as §6

Sa399 (ATCC43300, MRSA) = assay: MIC, broth microdilution (Example 5), Table 3; assay type: cell-based; conditions: Staphylococcus aureus
Description: as §6

Pa2086 (mucoid strain) = assay: MIC, broth microdilution (Example 5), Table 3; assay type: cell-based; conditions: Pseudomonas aeruginosa
Description: as §6

Pa2698 = assay: MIC, broth microdilution (Example 5), Table 3; assay type: cell-based; conditions: Pseudomonas aeruginosa
Description: as §6

Pa2694 = assay: MIC, broth microdilution (Example 5), Table 3; assay type: cell-based; conditions: Pseudomonas aeruginosa
Description: as §6

[1] = tested on: Sa1721 (NARSA NRS384, MRSA USA 300); assay: MIC, broth microdilution (Example 5), Table 3; assay type: cell-based; conditions: Staphylococcus aureus
Description: as §6

MRSA (n = 21) = assay: MIC90, expanded MIC panel (Table 4); assay type: cell-based; conditions: Staphylococcus aureus; 21 MRSA strains; read-out: MIC90 MRSA (n = 21)
Description: as §6

Pa #2545 = assay: MIC in MHB by standard CLSI microdilution (Example 4); assay type: cell-based; conditions: Pseudomonas aeruginosa
From the text: as §5

Pa #44 (ATCC27853) = assay: as above; assay type: cell-based; conditions: Pseudomonas aeruginosa
From the text: as §5

Kpn #573 = assay: as above; assay type: cell-based; conditions: Klebsiella pneumoniae
From the text: as §5

[2] = tested on: Pseudomonas aeruginosa #44 (ATCC#27853); assay: Mouse septicemia (systemic infection), PD50; assay type: in vivo; conditions: Pa #44 (ATCC27853), CD-1 mice, IP inoculum, 2 SC doses at 1 and 6 hrs, 7 day survival
Description: (§7) In vivo efficacy of (I) was evaluated against strains of MRSA, and ceftazidime-resistant Pa and Klebsiella pneumonia (Kpn) in mouse septicemia, thigh and lung infections. Septicemia: CD-1 mice received lethal bacterial inocula IP, followed by 2 doses of antibiotics SC at 1 and 6 hrs post-inoculation. Dose calculated to protect 50% of the mice (PD50) was derived based on probit analysis of percentage survival. Thigh and lung infections: Thighs or lungs of neutropenic mice were inoculated with MRSA or Pa. Two treatment doses were given SC at 1 and 6 hrs post-inoculation. Tissues were harvested at ˜24 hrs post-inoculation and bacterial burdens quantified.
(§8) II. Methods • A. Animals: Six week-old, specific pathogen free, female CD-1 mice purchased from Charles River Laboratories (Wilmington, Mass.) were used for all studies after acclimation in Cubist animal facility. All animal procedures were approved by the Cubist Institutional Animal Care and Use Committee. • B. Bacteria and In Vitro Susceptibility Testing: MRSA #712, Pseudomonas aeruginosa #2245 and #2545, and Klebsiella pneumoniae #573 are clinical isolates; Pseudomonas aeruginosa #44 is an ATCC strain (ATCC#27853). MIC was determined in MHB by standard CLSI microdilution. […] The survival of animals was recorded daily for 7 days. The antibiotic dose calculated to protect 50% of the mice (PD50) was derived based on probit analysis of percentage survival. • E. Mouse Thigh and Lung Infections: Mice were rendered neutropenic by two IP injections of cyclophosphamide 4 days (150 mg/kg) and 1 day (100 mg/kg) before bacterial inoculation. […] Tissue bacterial burdens were quantified by serial dilution and spiral plating of homogenates.
III. […] The dose that protected 50% of the mice (PD50) was calculated by probit analysis based on percentage of mice surviving for 7 days post-inoculation. • C. […]

[3] = tested on: Klebsiella pneumoniae #573; assay: Mouse septicemia (systemic infection), PD50; assay type: in vivo; conditions: Kpn #573; CD-1 mice, IP inoculum, 2 SC doses at 1 and 6 hrs, 7 day survival
Description: as §7
as §8, with “All animal procedures were approved by the Cubist Institutional Animal Care and Use Committee. • B. Bacteria and In Vitro Susceptibility Testing: MRSA #712, Pseudomonas aeruginosa #2245 and #2545, and Klebsiella pneumoniae #573 are clinical isolates; Pseudomonas aeruginosa #44 is an ATCC strain (ATCC#27853).” left out

[4] = tested on: ceftazidime-resistant Pseudomonas aeruginosa #2545; assay type: in vivo; conditions: Pa #2545; CD-1 mice, IP inoculum, 2 SC doses at 1 and 6 hrs, 7 day survival
Description: as §7
as §8, with “All animal procedures were approved by the Cubist Institutional Animal Care and Use Committee. • B. Bacteria and In Vitro Susceptibility Testing: MRSA #712, Pseudomonas aeruginosa #2245 and #2545, and Klebsiella pneumoniae #573 are clinical isolates; Pseudomonas aeruginosa #44 is an ATCC strain (ATCC#27853).” left out

[5] = tested on: ceftazidime-susceptible Pseudomonas aeruginosa #2245; assay: Lung infection in neutropenic mice; assay type: in vivo; conditions: Pa #2245 lung infection, 3-log CFU reduction vs vehicle at 24 h
Description: as §7, §5

[6] = tested on: ceftazidime-resistant Pseudomonas aeruginosa #2545; assay: Lung infection in neutropenic mice; assay type: in vivo; conditions: Pa #2545 lung infection
Description: as §7, §5

[7] = tested on: ceftazidime-susceptible Pseudomonas aeruginosa #44 (ATCC#27853); assay: Lung infection in neutropenic mice; assay type: in vivo; conditions: Pa #44 lung infection
Description: as §7, §5

[8] = tested on: Pseudomonas aeruginosa (n = 100); assay: MIC90, expanded MIC panel (Table 4); assay type: cell-based; conditions: 100 Pa strains
Description: as §6

Row | SMILES | MIC (Sa399 (MRSA)) [µg/mL] | MIC (Pa44 (WT Pa)) [µg/mL] | MIC (Pa44 (ATCC27853)) [µg/mL] | MIC (Pa2241) [µg/mL] | MIC (Sa399 (ATCC43300, MRSA)) [µg/mL] | MIC (Pa2086 (mucoid strain)) [µg/mL] | MIC (Pa2698) [µg/mL] | MIC (Pa2694) [µg/mL] | MIC [1] [µg/mL] | other results
1 | CO/N=C(\C(=O)N[C@@H]1C(=O)N2C(C(=O)[O-])=C(C[N+]3(C)CCCC3)CS[C@H]12)c1csc(N)n1 [Cefepime] | > 16 | ≤ 4 |  |  |  |  |  |  |  | 
2 | CO/N=C(\C(=O)N[C@@H]1C(=O)N2C(C(=O)[O-])=C(C[n+]3cccc4c3CCC4)CS[C@H]12)c1csc(N)n1 [Cefpirome] | 8 to 16 (≈ 15.5 to 31.1 µM) | ≤ 4 |  |  |  |  |  |  |  | 
3 | CCO/N=C(\C(=O)N[C@@H]1C(=O)N2C(C(=O)[O-])=C(Sc3nc(-c4cc[n+](C)cc4)cs3)CS[C@H]12)c1nsc(N)n1 [Ceftaroline, ceftaroline] |  |  | 8 (≈ 13.2 µM) | 16 (≈ 26.5 µM) | 0.5 (≈ 0.827 µM) | 16 (≈ 26.5 µM) | > 64 | > 64 | 2 (≈ 3.31 µM) | MIC (MRSA #712): 1 µg/mL (≈ 1.65 µM); MIC90 (MRSA (n = 21)): 1 µg/mL (≈ 1.65 µM)
4 | CC(C)(O/N=C(\C(=O)N[C@@H]1C(=O)N2C(C(=O)[O-])=C(C[n+]3ccccc3)CS[C@H]12)c1csc(N)n1)C(=O)O [Ceftazidime] | > 16 | ≤ 4 | 2 (≈ 3.66 µM) | 2 (≈ 3.66 µM) | 64 (≈ 117 µM) | 2 (≈ 3.66 µM) | 8 (≈ 14.6 µM) | 8 (≈ 14.6 µM) | > 64 | MIC (Pa #2545): 32 to 64 µg/mL (≈ 58.5 to 117 µM); MIC (Pa #44 (ATCC27853)): 1 µg/mL (≈ 1.83 µM); MIC (Kpn #573): 256 µg/mL (≈ 468 µM); Septicemia PD50 (± SE) [2]: 33.9 ± 7.4 mg/kg; Septicemia PD50 (± SE) ([2]; listed as ceftazidime): 33.9 ± 7.4 mg/kg; Septicemia PD50 (± SE) [3]: 50.3 ± 8.4 mg/kg; Septicemia PD50 (± SE) [4]: >140.5 mg/kg; ED−3 log [5]: 27.2 mg/kg; Lung (L) ED−2log ([6]; neutropenic mice, 2 SC doses at 1 and 6 hrs, 24 h, vs vehicle): >144.5 (L) mg/kg; impact on the bacterial burden in the lung ([6]; up to 144.5 mg/kg): minimal impact; Lung (L) ED−2log ([7]; 2 SC doses at 1 and 6 hrs, 24 h, vs vehicle): 25.6 (L) mg/kg; ED−3 log ([7]; 3-log CFU reduction vs vehicle at 24 h): 50.4 mg/kg; MIC90 [8]: 8 µg/mL (≈ 14.6 µM)
5 | CO/N=C(\C(=O)N[C@@H]1C(=O)N2C(C(=O)[O-])=C(C[n+]3ccc(CN)cc3)CS[C@H]12)c1csc(N)n1 [Compound 1-1] | > 16 | ≤ 4 |  |  |  |  |  |  |  | 
